Data reported in PMC4849433, “Phloem Proteomics Reveals New Lipid-Binding Proteins with a Putative Role in Lipid-Mediated Signaling” (Frontiers in Plant Science, 2016).

Columns and labels:
Assay in all cases: liposome co-sedimentation with anti-His Western blot; protein-lipid overlay
Type in all cases: binding
[1] = target: T1, PLAFP (phloem lipid-associated family protein) (Arabidopsis thaliana, UniProt O65660); conditions: pH 7.0, 0.1 M NaCl, 30 °C, 30 min; 1 μg protein; PtdOH mixed into PtdCho liposomes; figure modified from Benning et al. 2012 (same laboratory)
T1 construct: gene PLAT1; 23-residue predicted signal peptide removed; pET15b His tag; E. coli OrigamiB(DE3)pLysS; HisLink purified
T1 sequence (O65660 24-181): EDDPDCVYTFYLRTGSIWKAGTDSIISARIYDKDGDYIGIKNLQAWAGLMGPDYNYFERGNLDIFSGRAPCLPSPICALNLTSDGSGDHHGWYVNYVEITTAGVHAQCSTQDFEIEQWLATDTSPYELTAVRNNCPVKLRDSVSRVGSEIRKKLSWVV

PIG-P-like protein = target: T2, PIG-P-like protein (Arabidopsis thaliana, UniProt A0A1P8B1E2); conditions: pH 7.0, 0.1 M NaCl, 30 °C, 30 min; 1 μg protein; lipid in liposomes
T2 construct: gene TRM18; coding region, no signal peptide; pET15b His tag; E. coli BL21(DE3)pLysS; Ni-NTA purified; 50 kDa
T2 sequence (A0A1P8B1E2 1-464): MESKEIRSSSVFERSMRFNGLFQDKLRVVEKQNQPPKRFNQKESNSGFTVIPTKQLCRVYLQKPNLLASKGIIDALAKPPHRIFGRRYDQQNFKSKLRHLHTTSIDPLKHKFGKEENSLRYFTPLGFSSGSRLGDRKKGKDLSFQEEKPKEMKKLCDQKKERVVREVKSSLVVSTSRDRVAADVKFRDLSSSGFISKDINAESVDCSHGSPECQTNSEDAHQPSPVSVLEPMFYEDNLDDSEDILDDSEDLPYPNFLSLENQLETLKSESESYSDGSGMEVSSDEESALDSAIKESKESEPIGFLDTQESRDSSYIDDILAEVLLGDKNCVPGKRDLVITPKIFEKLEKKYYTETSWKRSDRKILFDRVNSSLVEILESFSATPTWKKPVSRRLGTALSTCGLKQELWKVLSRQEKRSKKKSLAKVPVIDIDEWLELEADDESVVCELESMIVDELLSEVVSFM

GDSL-lipase = target: T3, GDSL-lipase (Arabidopsis thaliana, UniProt Q9C7N5); conditions: pH 7.0, 0.1 M NaCl, 30 °C, 30 min; 10 μg protein; lipid in liposomes
T3 construct: gene At1g29660; 26-residue predicted signal peptide removed; pET15b His tag; E. coli BL21(DE3)pLysS; Ni-NTA purified
T3 sequence (Q9C7N5 27-364): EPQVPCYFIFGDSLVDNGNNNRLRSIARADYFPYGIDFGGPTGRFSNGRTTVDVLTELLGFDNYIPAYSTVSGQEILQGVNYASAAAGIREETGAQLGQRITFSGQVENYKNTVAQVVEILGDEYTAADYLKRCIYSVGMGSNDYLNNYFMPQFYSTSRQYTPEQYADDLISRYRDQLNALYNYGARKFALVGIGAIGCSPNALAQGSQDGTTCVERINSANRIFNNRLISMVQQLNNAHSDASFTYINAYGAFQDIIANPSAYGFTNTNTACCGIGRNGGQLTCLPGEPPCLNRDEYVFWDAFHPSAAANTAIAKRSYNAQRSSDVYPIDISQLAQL

## CCCCCCCC/C=C\CCCCCCCC(=O)OC[C@H](COP(=O)(O)O)OC(=O)CCCCCCC/C=C\CCCCCCCC [PtdOH]
[1]
  liposome co-sedimentation with anti-His Western blot; protein-lipid overlay: when PtdOH was included in the liposome, PLAFP bound
PIG-P-like protein
  liposome co-sedimentation with anti-His Western blot; protein-lipid overlay: PIG-P binds to liposomes containing PtdOH or PtdSer
GDSL-lipase
  liposome co-sedimentation with anti-His Western blot; protein-lipid overlay: the GDSL-lipase does associate with PtdOH-containing liposomes (Figure 1G)
